Experimental data from ChEMBL document CHEMBL4806959, “Antagonistic peptides for frizzled-1 and frizzled-2” (2015).
The source made the active and inactive calls. Residues, ends and D or L forms follow the SMILES beside them.

Columns and labels:
[1] = biological target: Frizzled-1 (Homo sapiens) (UniProt Q9UP38); test: Antagonist activity at Wnt3a-stimulated frizzled-1 (unknown origin) expressed in human HEK293superTOP flash cells at 10 nM incubated for 24 hrs by luciferase reporter gene assay; assay type: functional, cell-based; conditions: HEK293
[2] = biological target: Frizzled-2 (Homo sapiens, UniProt Q14332); test: Antagonist activity at Wnt3a-stimulated frizzled-2 (unknown origin) expressed in human HEK293superTOP flash cells at 10 nM incubated for 24 hrs by luciferase reporter gene assay; assay type: functional, cell-based; conditions: HEK293
[3] = biological target: Frizzled-2 (Rattus norvegicus) (UniProt Q08464); test: Antagonist activity at Wnt3a-stimulated rat frizzled-2 expressed in African green monkey COS7 cells up to 10 uM incubated for 24 hrs by luciferase reporter gene assay; assay type: cell-based; conditions: dose microM <=10, time 24.0 hrs
[4] = biological target: Frizzled-1 (Rattus norvegicus) (UniProt Q08463); test: Antagonist activity at Wnt3a-stimulated rat frizzled-1 expressed in African green monkey COS7 cells up to 10 uM incubated for 24 hrs by luciferase reporter gene assay; assay type: cell-based; conditions: dose microM <=10, time 24.0 hrs
[5] = biological target: Frizzled-2 (Rattus norvegicus) (UniProt Q08464); test: Antagonist activity at Wnt3a-stimulated rat frizzled-2 expressed in CHO cells up to 10 uM incubated for 24 hrs by luciferase reporter gene assay; assay type: cell-based; conditions: dose microM <=10, time 24.0 hrs
[6] = biological target: Frizzled-1 (Rattus norvegicus) (UniProt Q08463); test: Antagonist activity at Wnt3a-stimulated rat frizzled-1 expressed in CHO cells up to 10 uM incubated for 24 hrs by luciferase reporter gene assay; assay type: cell-based; conditions: dose microM <=10, time 24.0 hrs

Measured: inhibition

Sequence of Frizzled-2 (Q14332 24-565 limits assumed): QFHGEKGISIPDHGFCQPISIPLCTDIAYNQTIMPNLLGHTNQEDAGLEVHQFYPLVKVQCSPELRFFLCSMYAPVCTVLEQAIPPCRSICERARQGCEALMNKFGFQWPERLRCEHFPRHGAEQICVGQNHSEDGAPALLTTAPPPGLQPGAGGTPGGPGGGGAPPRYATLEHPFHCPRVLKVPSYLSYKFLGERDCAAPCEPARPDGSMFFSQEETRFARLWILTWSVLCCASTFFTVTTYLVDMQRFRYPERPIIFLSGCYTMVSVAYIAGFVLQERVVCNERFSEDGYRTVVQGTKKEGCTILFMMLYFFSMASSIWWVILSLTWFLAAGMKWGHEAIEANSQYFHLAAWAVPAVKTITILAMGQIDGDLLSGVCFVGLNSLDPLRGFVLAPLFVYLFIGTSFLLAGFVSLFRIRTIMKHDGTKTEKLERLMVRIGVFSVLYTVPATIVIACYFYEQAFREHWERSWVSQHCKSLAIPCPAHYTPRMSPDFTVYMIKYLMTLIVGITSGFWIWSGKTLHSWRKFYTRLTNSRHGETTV
Sequence of Frizzled-2 (Rattus norvegicus) (Q08464 29-570 limits assumed): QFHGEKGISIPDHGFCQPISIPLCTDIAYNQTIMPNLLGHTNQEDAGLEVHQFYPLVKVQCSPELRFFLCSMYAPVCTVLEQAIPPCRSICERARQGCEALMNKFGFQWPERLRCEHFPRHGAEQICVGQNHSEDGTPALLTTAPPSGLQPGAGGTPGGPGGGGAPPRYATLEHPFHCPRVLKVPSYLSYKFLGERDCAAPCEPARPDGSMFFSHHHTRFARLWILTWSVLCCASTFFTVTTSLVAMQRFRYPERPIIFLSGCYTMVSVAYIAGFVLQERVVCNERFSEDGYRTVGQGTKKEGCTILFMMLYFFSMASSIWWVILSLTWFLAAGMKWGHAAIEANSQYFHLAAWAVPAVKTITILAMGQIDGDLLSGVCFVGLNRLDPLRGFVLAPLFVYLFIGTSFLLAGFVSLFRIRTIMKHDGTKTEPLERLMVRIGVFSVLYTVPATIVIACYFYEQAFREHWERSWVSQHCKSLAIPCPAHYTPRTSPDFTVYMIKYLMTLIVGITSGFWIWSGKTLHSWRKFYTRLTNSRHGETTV
Sequence of Frizzled-1 (Rattus norvegicus) (Q08463 whole entry): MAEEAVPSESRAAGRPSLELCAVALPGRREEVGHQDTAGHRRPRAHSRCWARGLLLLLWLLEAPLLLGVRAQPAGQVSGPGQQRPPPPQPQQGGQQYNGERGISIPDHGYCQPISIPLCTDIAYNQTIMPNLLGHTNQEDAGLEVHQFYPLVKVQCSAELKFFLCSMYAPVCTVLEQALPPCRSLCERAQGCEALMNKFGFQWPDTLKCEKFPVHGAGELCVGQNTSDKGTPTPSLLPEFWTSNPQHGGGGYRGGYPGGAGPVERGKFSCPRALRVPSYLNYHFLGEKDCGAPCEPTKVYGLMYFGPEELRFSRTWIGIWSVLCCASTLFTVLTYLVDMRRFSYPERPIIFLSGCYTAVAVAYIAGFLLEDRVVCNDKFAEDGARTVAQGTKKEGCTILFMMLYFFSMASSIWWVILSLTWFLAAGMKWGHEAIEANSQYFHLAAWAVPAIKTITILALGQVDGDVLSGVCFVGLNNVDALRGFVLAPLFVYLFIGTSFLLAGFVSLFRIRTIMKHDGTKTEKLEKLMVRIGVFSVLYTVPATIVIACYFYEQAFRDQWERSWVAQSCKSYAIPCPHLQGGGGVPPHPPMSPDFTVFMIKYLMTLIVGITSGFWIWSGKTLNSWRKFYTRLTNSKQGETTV
Sequence of Frizzled-1 (Homo sapiens) (Q9UP38 70-647 limits assumed): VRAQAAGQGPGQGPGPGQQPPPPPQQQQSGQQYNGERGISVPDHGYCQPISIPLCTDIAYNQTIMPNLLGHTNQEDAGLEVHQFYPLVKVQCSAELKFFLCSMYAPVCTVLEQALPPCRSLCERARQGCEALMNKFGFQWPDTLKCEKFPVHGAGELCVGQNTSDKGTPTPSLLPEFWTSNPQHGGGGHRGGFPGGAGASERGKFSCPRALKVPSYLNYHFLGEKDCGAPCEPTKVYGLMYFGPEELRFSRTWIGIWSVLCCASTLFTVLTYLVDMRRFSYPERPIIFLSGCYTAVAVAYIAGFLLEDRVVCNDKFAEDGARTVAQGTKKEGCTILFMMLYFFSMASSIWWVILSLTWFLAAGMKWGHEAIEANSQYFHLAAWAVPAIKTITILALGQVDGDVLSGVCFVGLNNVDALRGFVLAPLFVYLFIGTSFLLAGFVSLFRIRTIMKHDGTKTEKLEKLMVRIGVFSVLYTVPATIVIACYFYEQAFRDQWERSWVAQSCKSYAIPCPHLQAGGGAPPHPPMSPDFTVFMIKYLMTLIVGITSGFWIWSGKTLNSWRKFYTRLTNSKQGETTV

CSCC[C@H](NC(=O)CNC(=O)[C@H](CCC(=O)O)NC(=O)[C@H](CO)NC(=O)[C@@H](NC(=O)[C@H](CCCCN)NC(=O)[C@H](CC(N)=O)NC(=O)[C@H](C)NC(C)=O)[C@@H](C)O)C(=O)N[C@@H](CC(=O)O)C(=O)NCC(=O)N[C@@H](CS)C(=O)N[C@@H](CCC(=O)O)C(=O)N[C@@H](CC(C)C)C(N)=O (Ac-ANKTSEGMDGCEL-NH2)
inactive: all assays above

CSCC[C@H](NC(=O)CNC(=O)[C@H](CCC(=O)O)NC(=O)[C@H](CO)NC(=O)[C@@H](NC(=O)[C@H](CCCCN)NC(=O)[C@H](C)NC(=O)[C@H](CS)NC(C)=O)[C@@H](C)O)C(=O)N[C@@H](CC(=O)O)C(=O)NCC(=O)N[C@@H](CS)C(=O)N[C@@H](CCC(=O)O)C(=O)N[C@@H](CC(C)C)C(N)=O (Ac-CAKTSEGMDGCEL-NH2)
inactive: all assays above

CSCC[C@H](NC(=O)CNC(=O)[C@H](CCC(=O)O)NC(=O)[C@H](CO)NC(=O)[C@@H](NC(=O)[C@H](C)NC(=O)[C@H](CC(N)=O)NC(=O)[C@H](CS)NC(C)=O)[C@@H](C)O)C(=O)N[C@@H](CC(=O)O)C(=O)NCC(=O)N[C@@H](CS)C(=O)N[C@@H](CCC(=O)O)C(=O)N[C@@H](CC(C)C)C(N)=O (Ac-CNATSEGMDGCEL-NH2)
inactive: all assays above

CSCC[C@H](NC(=O)[C@H](C)NC(=O)[C@H](CCC(=O)O)NC(=O)[C@H](CO)NC(=O)[C@H](C)NC(=O)[C@H](CCCCN)NC(=O)[C@H](CC(N)=O)NC(=O)[C@H](CS)NC(C)=O)C(=O)N[C@@H](C)C(=O)NCC(=O)N[C@@H](CS)C(=O)N[C@@H](CCC(=O)O)C(=O)N[C@@H](CC(C)C)C(N)=O (Ac-CNKASEAMAGCEL-NH2)
inactive: all assays above

CSCC[C@H](NC(=O)CNC(=O)[C@H](CCC(=O)O)NC(=O)[C@H](CO)NC(=O)[C@H](C)NC(=O)[C@H](CCCCN)NC(=O)[C@H](CC(N)=O)NC(=O)[C@H](CS)NC(C)=O)C(=O)N[C@@H](CC(=O)O)C(=O)NCC(=O)N[C@@H](CS)C(=O)N[C@@H](CCC(=O)O)C(=O)N[C@@H](CC(C)C)C(N)=O (Ac-CNKASEGMDGCEL-NH2)
inactive: all assays above

CSCC[C@H](NC(=O)CNC(=O)[C@H](CCC(=O)O)NC(=O)[C@H](C)NC(=O)[C@@H](NC(=O)[C@H](CCCCN)NC(=O)[C@H](CC(N)=O)NC(=O)[C@H](CS)NC(C)=O)[C@@H](C)O)C(=O)N[C@@H](CC(=O)O)C(=O)NCC(=O)N[C@@H](CS)C(=O)N[C@@H](CCC(=O)O)C(=O)N[C@@H](CC(C)C)C(N)=O (Ac-CNKTAEGMDGCEL-NH2)
inactive: all assays above

CSCC[C@H](NC(=O)CNC(=O)[C@H](C)NC(=O)[C@H](CO)NC(=O)[C@@H](NC(=O)[C@H](CCCCN)NC(=O)[C@H](CC(N)=O)NC(=O)[C@H](CS)NC(C)=O)[C@@H](C)O)C(=O)N[C@@H](CC(=O)O)C(=O)NCC(=O)N[C@@H](CS)C(=O)N[C@@H](CCC(=O)O)C(=O)N[C@@H](CC(C)C)C(N)=O (Ac-CNKTSAGMDGCEL-NH2)
inactive: all assays above

CSCC[C@H](NC(=O)[C@H](C)NC(=O)[C@H](CCC(=O)O)NC(=O)[C@H](CO)NC(=O)[C@@H](NC(=O)[C@H](CCCCN)NC(=O)[C@H](CC(N)=O)NC(=O)[C@H](CS)NC(C)=O)[C@@H](C)O)C(=O)N[C@@H](CC(=O)O)C(=O)NCC(=O)N[C@@H](CS)C(=O)N[C@@H](CCC(=O)O)C(=O)N[C@@H](CC(C)C)C(N)=O (Ac-CNKTSEAMDGCEL-NH2)
inactive: all assays above

CC(=O)N[C@@H](CS)C(=O)N[C@@H](CC(N)=O)C(=O)N[C@@H](CCCCN)C(=O)N[C@H](C(=O)N[C@@H](CO)C(=O)N[C@@H](CCC(=O)O)C(=O)NCC(=O)N[C@@H](C)C(=O)N[C@@H](CC(=O)O)C(=O)NCC(=O)N[C@@H](CS)C(=O)N[C@@H](CCC(=O)O)C(=O)N[C@@H](CC(C)C)C(N)=O)[C@@H](C)O (Ac-CNKTSEGADGCEL-NH2)
inactive: all assays above

CSCC[C@H](NC(=O)CNC(=O)[C@H](CCC(=O)O)NC(=O)[C@H](CO)NC(=O)[C@@H](NC(=O)[C@H](CCCCN)NC(=O)[C@H](CC(N)=O)NC(=O)[C@H](CS)NC(C)=O)[C@@H](C)O)C(=O)N[C@@H](C)C(=O)NCC(=O)N[C@@H](CS)C(=O)N[C@@H](CCC(=O)O)C(=O)N[C@@H](CC(C)C)C(N)=O (Ac-CNKTSEGMAGCEL-NH2)
inactive: all assays above

CSCC[C@H](NC(=O)CNC(=O)[C@H](CCC(=O)O)NC(=O)[C@H](CO)NC(=O)[C@@H](NC(=O)[C@H](CCCCN)NC(=O)[C@H](CC(N)=O)NC(=O)[C@H](CS)NC(C)=O)[C@@H](C)O)C(=O)N[C@@H](CC(=O)O)C(=O)N[C@@H](C)C(=O)N[C@@H](CS)C(=O)N[C@@H](CCC(=O)O)C(=O)N[C@@H](CC(C)C)C(N)=O (Ac-CNKTSEGMDACEL-NH2)
inactive: all assays above

CSCC[C@H](NC(=O)CNC(=O)[C@H](CCC(=O)O)NC(=O)[C@H](CO)NC(=O)[C@@H](NC(=O)[C@H](CCCCN)NC(=O)[C@H](CC(N)=O)NC(=O)[C@H](CS)NC(C)=O)[C@@H](C)O)C(=O)N[C@@H](CC(=O)O)C(=O)NCC(=O)N[C@@H](C)C(=O)N[C@@H](CCC(=O)O)C(=O)N[C@@H](CC(C)C)C(N)=O (Ac-CNKTSEGMDGAEL-NH2)
inactive: all assays above
